Reference: patent US12174172B2, “Method for evaluating the efficacy of a composition in reducing the effects of cancer therapeutics on skin” (Johnson & Johnson Consumer Inc., priority 2019, dated 2024)
Values joined by “and” are separate entries in the source; they are usually repeats but may differ in a detail not shown here. Equal entries are not always repeated. “Also recorded” adds a separate entry of the source. Where two headings read alike, the source gives them in different places. Marks after values point to notes of the source that are not given here.

Experiments:
desmoglein-1 (DSG1) [1] = test: 3D micro-epidermis model (EpiScreen): desmoglein-1 immunostaining; assay type: cell-based, human; details: supplementary data, Tox = toxic; for activation at 1 µM: Homo sapiens, 72 h, read-out: DSG 1 μM
filaggrin (FLG) = test: 3D micro-epidermis model (EpiScreen): filaggrin immunostaining; assay type: cell-based, human; details: for activation at 0.1 µM / activation at 1 µM / activation at 0.01 µM: Homo sapiens, 72 h; for FLG expression: Table 1 summary;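 for all read-outs here: human primary epidermal keratinocytes differentiated in high calcium into 3D micro-epidermises, compound-treated for three days, imaged by confocal high-content microscopy, filaggrin staining intensity quantified within actin-segmented structures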
involucrin (IVL) = test: 3D micro-epidermis model (EpiScreen): involucrin immunostaining; assay type: cell-based, human; details: for activation at 0.1 µM / activation at 1 µM: Homo sapiens, 72 h; for IVL expression: Table 1 summary
Method: (§1) To assess the effects of such therapy molecules on the epidermis, keratinocytes were grown in the presence of kinase inhibitors during 3 days with high calcium concentration to induce keratinocyte differentiation and generate a 3D-stratified differentiated epidermis. Drug impact on the epidermis development was assessed via different keratinocyte markers including: • Ki-67, an universally expressed protein among proliferating cells and absent in the quiescent cells; • Filaggrin, a filament-associated protein that binds to keratin fibers and is a marker of terminal differentiation; • Desmoglein-1, a component of desmosomes and differentiation marker expressed in all epidermal layer above the basal layer; and • Involucrin, an early differentiation marker expressed in the spinous and granular layers and a protein precursor of the epidermal cornified envelope.
(§2) Human epidermal keratinocytes cells (HPEKs) from a juvenile donor (CellnTec, Switzerland) are cultured in flasks in proliferation medium. Keratinocytes are seeded at passage 6 into EpiScreen™ (Abzena, Cambridge, UK) plates containing collagen 1 coated disc micropatterns (CYTOO, Grenoble, France). Four hours later, unattached cells are washed off and a high calcium medium is added to induce keratinocytes differentiation. The day after, keratinocytes are treated with screening compounds, and Trichostatin A is added at 0.3 μM as an internal positive control. After three days of treatment, micro-epidermises are fixed with a formalin solution 10% for 30 minutes, then permeabilized with 0.1% Triton. Several immunostainings are performed: actin (Acti-Stain 555, PHDH1, Cytoskeleton), nuclei (Hoechst, H3570, Invitrogen), and one biomarker of interest per well either anti-involucrin (HPA055211, Sigma), anti-filaggrin (HPA030189, Sigma) or anti-desmoglein-1 (HPA022128, Sigma). Antibodies are added overnight at 4° C. before staining with secondary antibody, anti-rabbit 488 (711-545-152, Jackson) for 2 hours at room temperature.
(§3) Images of each well are acquired with the Operetta HCS platform (Perkin Elmer, Waltham, MA, USA) using a ×10 objective in confocal mode in eight z-planes from 2 μm to 44 μm in steps of 6 μm in each of the 3 channels: actin, nuclei, and one biomarker of interest. The first step of the image analysis consists in detecting micro-epidermis structures on the first z-plane by segmenting the actin staining. Micro-epidermis structures are validated based on several area and roundness min and max criteria. Then, the area of each biomarker staining is measured inside the valid micro-epidermis masks through each z-plane. For all homogeneous biomarker staining, their intensity through the different planes is measured.
(§4) The actin network of each micro-epidermis is analyzed in each z-plane in order to determine the average 3D structure edges. The biomarker intensity is measured in each z-plane for each structure, and then averaged with the other results generated in the same well. Based on the data generated in the two previous steps, an average 3D reconstruction image is generated. It consists of a meshwork that delimits the structure edges, and a color scaled volume that corresponds to the biomarkers distribution and expression.
The effect of 8 oncology molecules, selected from first generation EGFRi and pan-kinase inhibitors which mostly target VEGFR and second and third generation therapies targeting main mutations relating to first generation treatment resistance, were assessed in vitro using a 3D micro-epidermis model. […] The drug impact was assessed by analysis of tissue size and keratinocyte proliferation using Ki-67 staining and keratinocyte differentiation using filaggrin, desmoglein-1 and involucrin staining.
Size of the epidermis and the expression of the protein junction desmoglein-1 (DSG1), involucrin (IVL) and filaggrin (FLG) was assessed by immunostaining and compared to untreated control. […]

desmoglein-1 (DSG1) [2] = test: 3D micro-epidermis model (EpiScreen): desmoglein-1 immunostaining; assay type: cell-based, human; details: for activation at 0.1 µM / activation at 0.01 µM: Homo sapiens, 72 h; for activation at 0.1 µM: read-out: DSG 100 nM; for activation at 0.01 µM: 10 nM, read-out: DSG 10 nM; for DSG-1 expression: Table 1 summary
Method: as §1, §2, §3, §4
The effect of 8 oncology molecules, selected from first generation EGFRi and pan-kinase inhibitors which mostly target VEGFR and second and third generation therapies targeting main mutations relating to first generation treatment resistance, were assessed in vitro using a 3D micro-epidermis model. The drug incubation concentrations (3, 10, 30, 100 nM) were selected to reflect the clinically relevant (unbound) drug exposures (Table 2). The drug impact was assessed by analysis of tissue size and keratinocyte proliferation using Ki-67 staining and keratinocyte differentiation using filaggrin, desmoglein-1 and involucrin staining. […]

[3] = test system: Human epidermal keratinocytes cells (HPEKs), 3D micro-epidermis; test: 3D micro-epidermis model (EpiScreen): epidermis size, toxicity, dose response, classification; assay type: cell-based; details: for Dose in response: variation of protein expression at 3, 10, 30 nM (EGFRi) or 3, 10, 30, 100 nM (VEGFRi); for Dose in response / Dose/response: markers in brackets; for impact on all measured parameters / epidermis development: micro-epidermis model; for Dose/response: supplementary table, per run (1st or 2nd Run); for effect on desmoglein-1, involucrin and filaggrin expression (dose dependence): 3, 10, 30 nM;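 for all read-outs here: keratinocytes on micropatterned discs in high-calcium medium, drug exposure for three days, then fixation and confocal high-content imaging of actin, nuclei and a marker, vehicle DMSO-matched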
[4] = cited from earlier work; for Cmax: maximal plasma concentration after a single daily-recommended dose, human; for Unbound concentration: unbound plasma concentration, identified or calculated from Cmax and unbound fraction; for Unbound fraction: unbound to plasma protein
[5] = most frequent cutaneous adverse reaction reported by the FDA Adverse Event Reporting System; cited from earlier work
[6] = supplementary data, two runs, Tox = toxic
[7] = 100 nM, supplementary data, two runs, Tox = toxic, read-out: FLG 100 nM
[8] = 1 μM, supplementary data, two runs, Tox = toxic
[9] = 100 nM, supplementary data, two runs, Tox = toxic
[10] = 100 nM, supplementary data, Tox = toxic
[11] = Table 3, 30 nM (EGFRi) or 100 nM (VEGFRi), 3 days, vs untreated control, superscript = significance footnote
[12] = Table 3, pro-proliferation or pro-differentiation
[13] = 10 nM, supplementary data, two runs, read-out: FLG 10 nM
[14] = Table 1 summary of drug effect on epidermis
[15] = Table 1 summary, pro-differentiation / pro-proliferation

SMILES	DSG 10 μM (desmoglein-1 (DSG1) [1])	activation at 1 µM (desmoglein-1 (DSG1) [1]; 1 μM) [%]	FLG 10 μM (filaggrin (FLG); [6])	activation at 0.1 µM (filaggrin (FLG); [7]) [%]	activation at 1 µM (filaggrin (FLG); [8]) [%]	IVL 10 μM (involucrin (IVL); [6])	activation at 0.1 µM (involucrin (IVL); [9]) [%]	activation at 1 µM (involucrin (IVL); [8]) [%]	activation at 0.1 µM (desmoglein-1 (DSG1) [2]; [10]) [%]	Epidermis size [3, 11]	Classification [3, 12]	Dose in response ([3]; Table 3)	Dose/response [3]	FLG 3 nM (filaggrin (FLG); supplementary data) [%]	FLG 30 nM (filaggrin (FLG); supplementary data) [%]	FLG expression (filaggrin (FLG))	effect on desmoglein-1, involucrin and filaggrin expression (dose dependence) [3]	Epidermis size [3, 14]	Classification [3, 15]	IVL 3 nM (involucrin (IVL); supplementary data) [%]	also measured
CC#CC(=O)N1CCC[C@H]1c1nc(-c2ccc(C(=O)Nc3ccccn3)cc2)c2c(N)nccn12 [Acalabrutinib]	−7.50%	-15	33%	6	15	25%	11	15	-26	–	–	–	–	–	–	–	–	–	–	–	–
CC(=O)Nc1ccc(O)cc1 [Acetaminophen]	–	–	–	–	–	10% and 8%	–	–	–	Unchanged^4	Unchanged	No	No	–	–	–	–	–	–	–	impact on all measured parameters / epidermis development [3]: no effect
COc1cc2ncnc(Nc3ccc(F)c(Cl)c3)c2cc1NC(=O)/C=C/CN1CCCCC1 [Dacomitinib]	–	–	–	–	–	–	–	–	–	Unchanged^4	Pro-	Yes	Yes (DSG, IVL,	8	31	Increased	dose-dependent manner	Decreased	Pro-differentiation	15	FLG 100 nM (filaggrin (FLG); [9]): Tox; activation at 0.01 µM (filaggrin (FLG); [13]): 25%; Toxicity at 1 μM ([3]; 1 μM, micro-epidermis): Yes; IVL 10 nM (involucrin (IVL); supplementary data, two runs): 31%; IVL 30 nM (involucrin (IVL); supplementary data): 60%; IVL 100 nM (involucrin (IVL); [9]): Tox; IVL expression (involucrin (IVL)): Increased; DSG 3 nM (desmoglein-1 (DSG1) [2]; supplementary data): 10.00%; DSG 30 nM (desmoglein-1 (DSG1) [2]; supplementary data): 54%; DSG 100 nM (desmoglein-1 (DSG1) [2]; [10]): Tox; activation at 0.01 µM (desmoglein-1 (DSG1) [2]; supplementary data): 32%; DSG-1 expression (desmoglein-1 (DSG1) [2]): Increased; Cmax [4]: 178 nM; Unbound concentration [4]: 0.42 nM and 0.425* nM; Unbound fraction [4]: 0.24%; Major Skin Effect [5]: Rash
CNC(=O)c1ccc(N2C(=S)N(c3ccc(C#N)c(C(F)(F)F)c3)C(=O)C2(C)C)cc1F [Enzalutamide]	−12%	-6	−1%	2	9.8	2%	9.3	6.2	-6	–	–	–	No	–	–	–	–	–	–	–	–
COc1cc2ncnc(Nc3ccc(F)c(Cl)c3)c2cc1OCCCN1CCOCC1 [Gefitinib]	–	–	–	–	–	–	29	–	41	Unchanged^4	Pro-	Yes	Yes (DSG)	10	5	Increased	increased in a dose-dependent manner only the expression of desmoglein-1	Unchanged	Pro-differentiation	23	activation at 0.01 µM (filaggrin (FLG); read-out: FLG 10 nM, 10 nM, supplementary data, two runs): 3%; activation at 0.1 µM (filaggrin (FLG); read-out: FLG 100 nM, 100 nM, supplementary data, two runs, Tox = toxic): 28%; Toxicity at 1 μM [3]: Yes; IVL 10 nM (involucrin (IVL); supplementary data, two runs): 8%; IVL 30 nM (involucrin (IVL); supplementary data): 23%; IVL expression (involucrin (IVL)): Increased; DSG 3 nM (desmoglein-1 (DSG1) [2]; supplementary data): −8%; DSG 30 nM (desmoglein-1 (DSG1) [2]; supplementary data): 15%; activation at 0.01 µM (desmoglein-1 (DSG1) [2]; supplementary data): 0%; DSG-1 expression (desmoglein-1 (DSG1) [2]): Increased; Cmax [4]: 356 nM; Unbound fraction [4]: 3.4%**
Cc1ccnc2c1NC(=O)c1cccnc1N2C1CC1 [Nevirapine]	−28%	-15	2%	7	8	20%	17	15	-8	–	–	–	Yes (DSG)	–	–	–	–	–	–	–	–
C=CC(=O)Nc1cc(Nc2nccc(-c3cn(C)c4ccccc34)n2)c(OC)cc1N(C)CCN(C)C [Osimertinib]	Tox	–	Tox	16	–	Tox	20	–	18	Unchanged^4	Unchanged	No	No	−12	2	Unchanged	did not affect	Unchanged	Unchanged	6	DSG 1 μM (desmoglein-1 (DSG1) [1]; 1 μM): Tox; FLG 1 μM (filaggrin (FLG); [8]): Tox; activation at 0.01 µM (filaggrin (FLG); [13]): -6%; impact on all measured parameters / epidermis development [3]: did not show any impact; also recorded: no impact; IVL 10 nM (involucrin (IVL); supplementary data, two runs): 8%; IVL 30 nM (involucrin (IVL); supplementary data): 7%; IVL 1 μM (involucrin (IVL); [8]): Tox; IVL expression (involucrin (IVL)): Unchanged; DSG 3 nM (desmoglein-1 (DSG1) [2]; supplementary data): −3%; DSG 30 nM (desmoglein-1 (DSG1) [2]; supplementary data): 7%; activation at 0.01 µM (desmoglein-1 (DSG1) [2]; supplementary data): -7%; DSG-1 expression (desmoglein-1 (DSG1) [2]): Unchanged; Cmax [4]: 627 nM; Unbound concentration [4]: 8.2764 nM; Unbound fraction [4]: 1.32%*
COc1cc2c(Nc3ccc(Br)cc3F)ncnc2cc1OCC1CCN(C)CC1 [Vandetanib]	–	30	–	–	–	–	25	51	5	–	–	–	–	–	–	–	–	–	–	–	–
CCCS(=O)(=O)Nc1ccc(F)c(C(=O)c2c[nH]c3ncc(-c4ccc(Cl)cc4)cc23)c1F [Vemurafenib]	−58%	-33	126%	23	65	−40%	-11	-24	-26	–	–	–	–	–	–	–	–	–	–	–	–
